Measured values reported in US4973597A, “Anticonvulsant agents” (Eli Lilly and Company, priority 1989, dated 1990).

Columns and labels:
[1] = tested on: tonic extensor seizures elicited by maximal electroshock; assay: electroshock induced convulsion inhibition assay (E.S.); assay type: in vivo, Cox standard strain albino male mice; conditions: mice; for ED50: Mus musculus, oral dose (gavage), 0.2 second, 50 milliampere corneal electroshock, inhibition of extensor tonic convulsions in half of the animals, at time of optimal response; for Time after dosing providing an approximately optimal response: oral gavage, time between dosing and administration of the electroshock
Protocol: In the electroshock induced convulsion inhibition assay (E.S.), the compound to be tested was suspended in acacia and administered by gavage to each of ten Cox standard strain albino male mice (18-24 g) at the dose level being investigated. Thirty to 180 minutes after compound administration, the mice were subjected to a 0.2 second, 50 milliampere electroshock through corneal electrodes. The animals were examined and evaluated immediately after the electroshock for the occurrence of clonic, flexor tonic, or extensor tonic convulsions, or death and the ED50 was determined for each compound as the dose which inhibited the occurrence of extensor tonic convulsions in one half of the animals immediately after the electroshock. For comparison, 18 milliamperes was usually sufficient to produce extensor tonic convulsions in about half of the control animals; at 50 milliamperes, almost all control animals (receiving vehicle only) died. The test results summarized in Table I are reported as the ED50 values calculated by computer interpolation of fixed doses at the time interval found to provide an optimal response after dosing. For comparison purposes, N-(2,6-dimethylphenyl)-3-pyridinecarboxamide, taught as an intermediate in Example 4 of U.S. Pat. No. 4,361,572, was also evaluated--this compound is referred to in Table I below as Compound A.

seizures = conditions: man; cited from earlier work

SMILES: Cc1cccc(C)c1NC(=O)c1ccc(Cl)nc1 [Example 1, 6-Chloro-N-(2,6-dimethylphenyl)-3-pyridinecarboxamide]
- ED50 [1]: 31.7 mg/kg
- Time after dosing providing an approximately optimal response [1]: 30 min

SMILES: Cc1ccc(C(=O)Nc2c(C)cccc2Cl)cn1 [Example 3, N-(2-Chloro-6-methylphenyl)-6-methyl-3-pyridinecarboxamide]
- ED50 [1]: 20.2 mg/kg
- Time after dosing providing an approximately optimal response [1]: 60 min

SMILES: Cc1ccc(C(=O)Nc2c(C)cccc2C)cn1 [Example 2, N-(2,6-Dimethylphenyl)-6-methyl-3-pyridinecarboxamide]
- ED50 [1]: 6.7 mg/kg
- Time after dosing providing an approximately optimal response [1]: 60 min

SMILES: Cc1cccc(C)c1NC(=O)c1cccnc1 [Compound A, N-(2,6-dimethylphenyl)-3-pyridinecarboxamide, reference compound]
- ED50 [1]: 24.5 mg/kg
- Time after dosing providing an approximately optimal response [1]: 30 min

SMILES: CNc1ccc(C(=O)Nc2c(C)cccc2C)cn1 [Example 4, 6-(Methylamino)-N-(2,6-dimethylphenyl)-3-pyridinecarboxamide]
- ED50 [1]: 8.7 mg/kg
- Time after dosing providing an approximately optimal response [1]: 60 min

SMILES: O=C1NC(=O)C(c2ccccc2)(c2ccccc2)N1 [phenytoin]
- plasma level that controls seizures (seizures): ≥ 10 µg/mL
